Here are results for 29 molecules from patent US6787670B1, “Glyoxyl acid amides, method for producing them and their use for controlling harmful organisms” (priority 1999, dated 2004).

SMILES strings stand for the structures.

The first assay deals with Phytophthora infestans. Put plainly: whole plant or invertebrate. To be noted: Phytophthora infestans, in Solanum lycopersicum, 72 h, read-out: efficacy in %, tomato plants, protective spray, application rate 50 g/ha, evaluation 3 days after inoculation; 100% = no infection. Type of assay: in vivo.
On to `C=CCOc1ccc(CCNC(=O)/C(=N\OC)c2ccc3c(c2)CCCC3)cc1OC` [Example 57], for which the pest or weed control at 50 g/ha was determined as 99%.
On the same count and under the same terms, for `CCC(=O)COc1ccc(CCNC(=O)/C(=N\OC)c2ccc3c(c2)CCCC3)cc1OC` [Example 60] the value was 89%; for `CCc1ccc(/C(=N/OC)C(=O)NCCc2ccc(OC(C)C)c(OC)c2)cc1` [Example 60], not below 89%; for `CCCOc1ccc(CCNC(=O)/C(=N\OC)c2ccc(Br)cc2)cc1OC` [Example 61], 94%.
The same measure, in the same setting: for `CO/N=C(\C(=O)NCCc1ccc(OC(C)C)c(OC)c1)c1ccc2c(c1)CCCC2` [Example 61] the value was not below 89%; for `CCC(C)Oc1ccc(CCNC(=O)/C(=N\OC)c2ccc(Cl)cc2)cc1OC` (stereo not shown) [Example 62], 89%; for `CCC(C)Oc1ccc(CCNC(=O)/C(=N\OC)c2ccc3c(c2)CCC3)cc1OC` (stereo not shown) [Example 65], 94%.
The same measure, in the same setting: for `CO/N=C(\C(=O)NCCc1ccc(OC(C)C)c(OC)c1)c1ccc(C)cc1` [Example 107] the value was 95%.
As to `COCCOc1ccc(CCNC(=O)/C(=N/OC)c2ccc3c(c2)CCCC3)cc1OC` [Example 107], the pest or weed control at 50 g/ha is not below 89%.
Still for that read-out and setting: as for `C=CCOc1ccc(CCNC(=O)/C(=N\OC)c2ccc(Br)cc2)cc1OC` [Example 115], the figure is not below 89%.
The same measure, in the same setting: as for `CO/N=C(\C(=O)NCCc1ccc(OC(C)C)c(OC)c1)c1ccc2c(c1)CCC2` [Example 115], the figure is 94%.

Staying with this assay, now noted: tomato plants, protective spray, application rate 50 g/ha, evaluation 3 days after inoculation; 100% = no infection.
In turn, `COCCOc1ccc(CCNC(=O)/C(=N/OC)c2ccc3c(c2)CCCC3)cc1OC` [Example 3] came in with an efficacy in % of 92%.
`C=CCOc1ccc(CCNC(=O)/C(=N\OC)c2ccc(Br)cc2)cc1OC` [Example 52] returned an efficacy in % of 100%.
Same read-out and setting: as for `CCc1ccc(/C(=N/OC)C(=O)NCCc2ccc(OC(C)C)c(OC)c2)cc1` [Example 113], the figure is 94%.

The same assay, now with this note: tomato plants, protective spray, application rate 50 g/ha, evaluation 3 days after inoculation; 100% = no infection; listed as drawing 53.
Take `CO/N=C(\C(=O)NCCc1ccc(OC(C)C)c(OC)c1)c1ccc2c(c1)CCCC2` [Example 63]: the efficacy in % is recorded as 94%.

Staying with this assay, now noted: tomato plants, protective spray, application rate 50 g/ha, evaluation 3 days after inoculation; 100% = no infection; listed as drawing 58.
`CO/N=C(\C(=O)NCCc1ccc(OC(C)C)c(OC)c1)c1ccc2c(c1)CCCC2` [Example 116] returned an efficacy in % of 94%.

The test system of the next assay is Alternaria solani. The experiment in a line: Alternaria test (tomato)/protective. To be noted: tomato plants, protective spray, application rate 750 g/ha, evaluation 3 days after inoculation; 100% = no infection. It counts as in vivo.
Experimental: Alternaria Test (Tomato)/Protective
Solvent: 50 parts by weight of N,N-dimethylformamide
Emulsifier: 1.2 parts by weight of alkylaryl polyglycol ether
One day after the treatment, the plants are inoculated with a spore suspension of Alternaria solani. The plants then stand at 100% rel. atmospheric humidity and a temperature of 20° C.
Evaluation is carried out 3 days after the inoculation.
The molecule `CO/N=C(\C(=O)NCCc1ccc(OCC(C)C)c(OC)c1)c1ccc2c(c1)CCCC2` [Example 45] showed an efficacy in % of 95%.
Same read-out and setting: as for `CCCCOc1ccc(CCNC(=O)/C(=N\OC)c2ccc3c(c2)CCCC3)cc1OC` [Example 48], the figure is 95%; as for `CO/N=C(\C(=O)NCCc1ccc(OCC(C)C)c(OC)c1)c1ccc2c(c1)CCCC2` [Example 49], 90%.

In another assay the test system is Plasmopara viticola. Put plainly: Plasmopara test (grapevine)/protective. It counts as in vivo. To be noted: 144 h, grapevine plants, protective spray, application rate 50 g/ha, evaluation 6 days after inoculation, 100% = no infection, read-out: efficacy in %.
For the molecule `COCCOc1ccc(CCNC(=O)/C(=N\OC)c2ccc(Cl)cc2)cc1OC` [Example 60], the pest or weed control at 50 g/ha was determined as 96%.
As for `CCC(=O)COc1ccc(CCNC(=O)/C(=N\OC)c2ccc3c(c2)CCCC3)cc1OC` [Example 100], the pest or weed control at 50 g/ha is 94%.
Same read-out and setting: as for `CCC(C)Oc1ccc(CCNC(=O)/C(=N\OC)c2ccc(Cl)cc2)cc1OC` (stereo not shown) [Example 111], the figure is 83%; as for `CCC(C)Oc1ccc(CCNC(=O)/C(=N\OC)c2ccc3c(c2)CCC3)cc1OC` (stereo not shown) [Example 113], 94%; as for `CO/N=C(\C(=O)NCCc1ccc(OC(C)C)c(OC)c1)c1ccc2c(c1)CCC2` [Example 116], 100%.

The same assay, now with this note: 144 h, read-out: efficacy in %.
On to `CCOc1cc(CCNC(=O)/C(=N\OC)c2ccc3c(c2)CCCC3)ccc1OC` [Example 52], for which the pest or weed control at 50 g/ha was 93%.
Consider `C=CCOc1ccc(CCNC(=O)/C(=N\OC)c2ccc(Br)cc2)cc1OC` [Example 63], for which the pest or weed control at 50 g/ha was determined as 99%.
On the same count and under the same terms, as for `COCCOc1ccc(CCNC(=O)/C(=N\OC)c2ccc3c(c2)CCCC3)cc1OC` [Example 65], the figure is 93%; as for `CCc1ccc(/C(=N/OC)C(=O)NCCc2ccc(OC(C)C)c(OC)c2)cc1` [Example 115], 87%.

The same assay, now with this note: 144 h, read-out: efficacy in %, grapevine plants, protective spray, application rate 50 g/ha, evaluation 6 days after inoculation, 100% = no infection.
With `CCc1ccc(/C(=N/OC)C(=O)NCCc2ccc(OC(C)C)c(OC)c2)cc1` [Example 60], the pest or weed control at 50 g/ha was not below 83%.
As for `CCOc1cc(CCNC(=O)/C(=N\OC)c2ccc3c(c2)CCCC3)ccc1OC` [Example 100], the pest or weed control at 50 g/ha was not below 83%.
In the case of `C=CCOc1ccc(CCNC(=O)/C(=N\OC)c2ccc(Br)cc2)cc1OC` [Example 115], the pest or weed control at 50 g/ha is not below 83%.
